One series deals with HUVECs. Briefly: Capillary tube formation on matrigel. The settings on record: 1 μg/mL, 8 hours. The format is cell-based, human. How it is done:
(§1) Human umbilical vein endothelial cells (HUVECs), adult normal human epidermal keratinocytes (NHEKs), normal human dermal fibroblasts (NHDFs) and related media for cell culture including endothelial basal and growth medium-2 (EBM-2, EGM-2), keratinocyte basal and growth medium-2 (KBM-2, KGM™-2), fibroblast basal and growth medium (FBM, FGM™) were purchased from Lonza. Cells were incubated at 37° C. and 5% CO2 throughout the experiments. Phosphate-Buffered Saline (PBS), [3-(4,5-dimethylthiazol-2-yl)-5-(3-carboxymethoxyphenyl)-2-(4-sulfophenyl)-2H-tetrazolium (MTS) (Promega) colorimetric assay and growth factor reduced matrigel BD (Corning) were from Sigma-Aldrich. Culture-Insert 2 Well 24 IbiTreat was used for the scratch assay.
Matrigel was kept in a −20° C. freezer and thawed on ice overnight in a 4° C. refrigerator. A total of 50 μl of thawed matrigel was added to each well of pre-chilled 96-well plate and then incubated for 30 min at 37° C. to form a gel. Next, 100 μl of a HUVEC cell suspension (passage 2-6) in conditioned media (20000 cell/well), including the compound of this invention, was added to gel and incubated at 37° C. for 8 hours. The number of junctions in tubes was examined using a phase contrast inverted microscope (Invitrogen EVOS FL Auto Cell Imaging) and compared to the conditions with no compound (negative control) and VEGF growth factor (positive control).

The test system of a further series is NHEKs. The series can be described thus: In vitro scratch assay (cell migration, wound closure). The format is cell-based, human. How it is done: as §1
Cell migration of NHEKs was assessed through making a cell-free gap with a Culture-insert 2 well 24, consisting of two wells that were separated by a wall. A total of 70 μl of cell suspension comprising of 35×10^3 cell was applied in each well. Cells were given 24 hours to attach and reach confluency. Culture inserts were then removed, and cell debris was washed with PBS. The samples were supplemented with different concentration of the compound of interest in growth media and incubated at 37° C. and 5% CO2 for 20 hours. Images were taken every 4 hours using a phase contrast Nikon Eclipse Ti-E inverted microscope. Quantification of percent wound healing was performed by measuring the gap distance using the following formula:
[formula] in which Wn is the width of gap after every 4 hours and W0 is the initial width zero right after forming a scratch. Capillary Tube Formation

In series [1] the test system is human umbilical vein endothelial cells (HUVECs). Briefly: Cytotoxicity assay (MTS), cell proliferation and viability. The format is cell-based. The settings on record: 24 hours of exposure, 0.1 to 1 μg/mL, vs control and DMSO vehicle control. How it is done: as §1
(§2) In order to determine cell viability, HUVECs, NHDFs, NHEKs were cultured in their respective growth media to reach 80% confluency. Cells were seeded at the density of 3×10^3 cell per 96 well plate in a total volume of 100 μl in each well. After seeding, the cells were incubated for 24 hours at 37° C. and 5% CO2 to allow for cell attachment. Media was changed and replaced with media supplemented with the desired concentration of the compound of interest (0.1, 0.5, 1 and 10 μg/mL), being first dissolved at 10,000 μg/mL in DMSO and subsequently diluted in culture media. The vehicle control was culture medium supplemented with DMSO 0.1% (Macron Fine Chemicals), representing the highest final concentration of DMSO used to dissolve the natural compound. Following 24 hours of incubation, […] and incubated for 2 hours. Colored formazan absorbance which was produced by bio-reduction of MTS tetrazolium compound in live cells was read at 490 nm using a Spectramax 190 spectrophotometer and cell proliferation was assessed. A standard calibration curve at different concentration of cells was prepared to correlate cell number to absorbance.

Series [2] has as its system normal human epidermal keratinocytes (NHEKs). Described as above. In kind it is cell-based. The settings on record: 24 hours of exposure, 0.1 to 1 μg/mL, vs control and DMSO vehicle control. How it is done: as §1, §2
The subject of series [3] is normal human dermal fibroblasts (NHDFs). Described as above. The settings on record: 24 hours of exposure, 0.1 to 1 μg/mL, vs control and DMSO vehicle control. The format is cell-based. How it is done: as §1, §2

SMILES strings stand for the structures.

`C=CC1(C)CC2=CCC3C(C)(C)CCC(O)C3(C)C2CC1O` (stereo not shown) [compound of FIG. 1]: the “tube formation, more than the control (untreated cell)” value in the series with HUVECs was 60%. Further, the “migration during exposure time” value with NHEKs (1 μg/mL, compared with untreated cells and 0.1 μg/mL) is on record as “higheast migration”. Besides, in the series with NHEKs (1 μg/mL, four hours post-treatment), the “percentage of wound closure relative to non-treated control groups” value is on record as roughly 10 fold. The “wound closure of NHEKs” value with NHEKs (0.1 and 1 μg/mL, monitored for 20 hours, vs untreated control) was “significantly enhance the wound closure”. Also, the “cell toxicity (MTS)” value in series [1], in series [2] and in series [3] was “no cell toxicity” throughout.

For the origin of these results see US11357739B2, “Pimarane diterpenoids for use in wound healing and angiogenesis” (UNIVERSITY OF SOUTH CAROLINA, priority 2017, dated 2022).
